Results from patent US11253497B2, “Use of derivatives of polyunsaturated fatty acids as medicaments” (Lipopharma Therapeutics, S.L., priority 2009, dated 2022).

Legend:
[1] = test system: COX-2; assay: Expression of COX-2 in LPS-stimulated monocytes in culture; assay type: cell-based, human; conditions: positive control with LPS 100%
Method in brief: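 Cultured monocytes stimulated with LPS; COX-2 protein level expressed as % inhibition relative to the LPS-only positive control (100%).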

[2] = test system: Jurkat cells; assay: Human leukaemia (Jurkat cells); assay type: cell-based; conditions: 72 hours
Description: Overall, it may be seen that the series of compounds A and B are the best, so the effectiveness of these series against the development of leukaemia and liver cancer (Tables 9 and 10) was tested.

[3] = test system: brain cancer cell (glioma) U118; assay: Brain cancer (glioma) U118 cell growth; assay type: cell-based; conditions: 72 hours of incubation
Method in brief: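 Cell counts taken with compound, mean of three independent experiments. Applies to U118.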

[4] = Serum cholesterol, triglycerides and glucose in SHR rats (colorimetric); assay type: in vivo, rat; conditions: 200 mg/kg daily p.o., 28 days, untreated rats 100%
Method in brief: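 SHR rats dosed p.o. at 200 mg/kg daily for 28 days; serum cholesterol, triglycerides and glucose measured colorimetrically. Values given as percent of untreated control rats, set at 100%.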

[5] = Lamellar-to-hexagonal (HII) transition temperature in DEPE model membranes by Differential Scanning Calorimetry; assay type: physicochemical; conditions: for Temperature of lamellar-to-hexagonal transition: DEPE membranes, DEPE:D-PUFA 10:1 (mol:mol); for Transition temperature (lamellar to HII): DEPE (4 mM), 200 μM compound, series A, control 64.5
Method in brief: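 Lamellar-to-HII transition temperature of DEPE membranes measured by differential scanning calorimetry, with DEPE:fatty acid at 10:1 mol:mol. Control membranes contained no fatty acid.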

[6] = test system: TNF-α; assay: Production of TNF-α in serum of LPS-injected C57BL6/J mice; assay type: in vivo; conditions: LPS 20 μg i.p. (100%), 200 mg/kg p.o.
Method in brief: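 C57BL6/J mice given intraperitoneal LPS (20 μg) to induce inflammation, then dosed orally with derivatives at 200 mg/kg. Serum TNF-α measured.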

[7] = test system: B6 healthy mice; assay: Radial maze in control animals (B6 healthy mice); assay type: in vivo; conditions: 20 mg/kg daily po, 3 months
Description: To test the efficacy of the compounds of the present invention to induce neuroregeneration or inhibit neurodegeneration, an animal model of Alzheimer's disease was used. In this model mice develop neurodegeneration because they express a series of mutant proteins that lead to brain damage (Alzh mice). B6 mice were used as healthy animal controls. Both groups of animals were treated for a period of 3 months with vehicle (water) or with various D-PUFA (20 mg/kg, daily po) since they were an age of 3 months. To determine whether cognitive improvement occurred after treatment, animal behaviour was monitored in the radial maze. The animals are kept on restricted diet to have appetite. In a symmetrical 8-arm radial maze, visual marks were placed to facilitate the orientation of the animal and food (15 mg tablet) was put in four of the arms. The time each animal took to complete the exercise, and the number of errors, were measured using a camera attached to a computer system. In this sense, Alzheimer animals have values about 50% higher than healthy animals, both by the time it takes to perform the exercise and by the number of errors made (FIG. 4B). […] In this regard, the effectiveness of the compound 183B1, 205A1, 205B1, 226A1, 226 V1 was also tested, showing improvements in animals with Alzheimer's disease (times of 98, 92, 93, 86 and 89 seconds, respectively). On the other hand, it is also interesting that these same compounds (183B1, 205A1, 205B1, 226A1, 226B1 and 226V1) also produced reductions in the times taken to complete the experiment in control animals (B6 healthy mice) of 8s, 11s, 12s, 18s, 16s and 14s, respectively. Therefore, it may be concluded that these compounds have significant activity against neurodegeneration and in neuroregeneration.

[8] = test system: lung cancer cells A549; assay: Growth of lung cancer cells A549 (IC50); assay type: cell-based, human; conditions: 72 hours of incubation
Method in brief: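 Cell counts taken with compound, mean of three independent experiments. Applies to A549 (RPMI 1640, 10% FBS, 37 °C, 5% CO2).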

[9] = test system: breast cancer cells MDA-MB-231; assay: Growth of breast cancer cells MDA-MB-231; assay type: cell-based; conditions: 72 hours of incubation
Method in brief: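 Cell counts taken with compound, mean of three independent experiments. Applies to MDA-MB-231.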

SMILES | COX-2 protein levels (expression), percentages of inhibition compared to positive control [1] | IC50 [2] | IC50 [3] | Cholesterol in serum (top number) [4] | Glucose in serum (bottom number) [4] | Triglycerides in serum (central number) [4] | Temperature of lamellar-to-hexagonal transition [5] | Production of TNF-α in serum [6] | Reduction in the time taken to complete the experiment [7] | IC50 [8] | IC50 [9] | IC50 ([2]; Homo sapiens, Jurkat) | Transition temperature (lamellar to HII) [5] | IC50 ([8]; Homo sapiens, A549) | IC50 ([9]; Homo sapiens, MDA-MB-231)
CCC=CCC=CCC=CCCCCCCC(O)C(=O)[O-].[Na+] (centres unmarked) [183B1] | 33% | 196 µM | 202 µM | 75% | 84% | 66% | 51.9 °C | 81% | 8 s | 195 µM | 267 µM | – | – | – | –
CCC=CCC=CCC=CCC=CCC=CCCC(O)C(=O)O (centres unmarked) [205A1, 2-hydroxy-5,8,11,14,17-eicosapentaenoic acid] | 31% | – | 400 µM | 69% | 82% | 74% | – | 56% | 11 s | – | – | 376 µM | 47.9 °C | 394 µM | 390 µM
CCC=CCC=CCC=CCC=CCC=CCCC(O)C(=O)[O-].[Na+] (centres unmarked) [205B1] | 39% | 294 µM | 391 µM | 58% | 87% | 65% | 48.3 °C | 69% | 12 s | 202 µM | 208 µM | – | – | – | –
CCC=CCC=CCC=CCC=CCC=CCC=CCC(O)C(=O)O (centres unmarked) [226A1] | 23% | 85 µM | 214 µM | 64% | 79% | 71% | – | 73% | 18 s | 195 µM | 187 µM | – | 44.4 °C | – | –
